Test results taken from patent publication US20250090507A1, “Methods of Treating Cancer With a B-RAF Inhibitor” (MapKure, LLC, priority 2022, published 2025).
“Also recorded” adds a separate entry of the source. Read-outs that look alike come from different tables or passages of the source.

Key:
Log P = assay type: physicochemical
[1] = tested on: B-RAF/MEK inhibitor-resistant tumors; assay: Preclinical activity towards resistant tumors; settings: preclinical studies
[2] = Phase 1 study (NCT04249843): plasma pharmacokinetics of Compound A; assay type: in vivo, human; settings: for Racc: accumulation ratio based on AUC8h; for Cmax / AUC(0-t) / Tmax: human, plasma, oral
Method: For a single-dose profile: AUC from zero to the last measurable concentration (AUClast), AUC from zero to infinity (AUC0-∞), maximum observed plasma concentration (Cmax), time to maximum observed plasma concentration (tmax), t1/2, apparent clearance, and apparent volume of distribution (Vz/F). In addition, AUClast,ss, AUCtau, Cmax,ss, and tmax, ss were calculated at steady state.
Pharmacokinetic assay: plasma samples were assayed for Compound A (or possible major metabolites) concentration with use of a validated chromatography method.
Pharmacokinetic data were analyzed using the PK Population. Compound A PK variables (i.e., AUClast, AUC0-∞, Cmax, Tmax, t1/2, apparent clearance and Vz/F) were calculated after single dosing in Phase 1a. In addition, AUClast, ss, AUCtau, Cmax,ss, and tmax,ss were calculated in Phase 1b. The PK parameters were calculated as appropriate using noncompartmental methods and summary statistics were provided. Compound A (or possible major metabolites) plasma concentration data and PK parameters were tabulated and summarized for Day 1 of Cycle 1, Day 1 of Cycle 2 and at steady state (Phase 1b). Descriptive statistics included means, medians, minimums, maximums, standard deviation, coefficient of variation (CV), geometric mean, and geometric CV as appropriate. Mean plasma concentrations were also plotted against time for each dose level. Additional PK analyses may be conducted as appropriate.
Tumor response: • 1 patient evaluable, 201-011: SD week 8. • Preliminary PK parameters and data are listed in Table 6. • Parameters listed as Mean (% CV) • Tmax reported as median (min, max) • Accumulation ratio Racc based on AUC8h • Patient 101-007 was excluded from C2D1 of cohort 2 (10 mg) due to dose reduction. • Patient 101-011 was excluded from summary statistics of CID1 of cohort 6 (60 mg) due to […] samples. • Patient 201-011 C2D1 parameters excluded from summary statistics of C2D1 of cohort 6 due to extended dose interruption.

[3] = tested on: tumor cell lines harboring non-V600 B-RAF mutations; assay: Preclinical inhibition of tumor cell lines; assay type: cell-based; settings: preclinical studies
[4] = 40 mg, 40 mg QD, C2D1, patient 202-012

Which results are given for `O=C1CCc2c(Oc3ccc4c(c3)[C@H]3[C@H](NC(=O)Nc5cc(F)c(F)cc5F)[C@H]3O4)ccnc2N1` [Compound A, 1-((1S,1aS,6bS)-5-((7-oxo-5,6,7,8-tetrahydro-1,8-naphthyridin-4-yl)oxy)-1a,6b-dihydro-1H-cyclopropa[b]benzofuran-1-yl)-3-(2,4,5-trifluorophenyl)urea]?
logP (Log P): > 4.46; Activity towards resistant tumors [1]: active; Racc ([2]; 5 mg QD, Mean (%CV)): 17 (117%); Racc ([2]; 10 mg QD, Mean (%CV)): 6 (49%); Racc ([2]; 15 mg QD, Mean (%CV)): 7 (60%); Racc ([2]; 25 mg QD, Mean (%CV)): 4 (23%); Racc ([2]; 40 mg QD, Mean (%CV)): 4 (23.5%); Racc ([2]; 40 mg QD, patient 101-010): 4.05; Racc ([2]; 40 mg QD, patient 102-012): 4.06; Racc ([2]; 40 mg QD, patient 201-010): 5.43; Racc ([2]; 40 mg QD, patient 202-012): 3.06; Racc ([2]; 60 mg QD, patient 101-011): 6.7; Racc ([2]; 60 mg QD, patient 201-011): 5.7; Dose proportionality of exposure ([2]; 5-60 mg QD, preliminary PK): generally increased dose-proportionally; also recorded: generally dose-proportional; Exposure across cohorts versus dose ([2]; cohorts up to 40 mg QD): generally proportional to the increase in the dose; Cmax ([2]; 5 mg, 5 mg QD, C2D1, Mean (%CV)): 451 ng/mL; AUC(0-t) ([2]; 5 mg, 5 mg QD, C2D1, Mean (%CV), read-out: AUC8 h): 2660 ng·h/mL; Cmax ([2]; 5 mg, C1D1, Mean (%CV)): 105 ng/mL; AUC(0-t) ([2]; 5 mg, C1D1, Mean (%CV), read-out: AUC8 h): 414 ng·h/mL; AUC(0-t) ([2]; 5 mg, C1D1, Mean (%CV), read-out: AUC24 h): 1380 ng·h/mL; Cmax ([2]; 10 mg, 10 mg QD, C2D1, Mean (%CV), patient 101-007 excluded): 973 ng/mL; AUC(0-t) ([2]; 10 mg, 10 mg QD, C2D1, Mean (%CV), patient 101-007 excluded, read-out: AUC8 h): 5720 ng·h/mL; Cmax ([2]; 10 mg, C1D1, Mean (%CV)): 197 ng/mL; AUC(0-t) ([2]; 10 mg, C1D1, Mean (%CV), read-out: AUC8 h): 1060 ng·h/mL; AUC(0-t) ([2]; 10 mg, C1D1, Mean (%CV), read-out: AUC24 h): 3140 ng·h/mL; Cmax ([2]; 15 mg, 15 mg QD, C2D1, Mean (%CV)): 1660 ng/mL; AUC(0-t) ([2]; 15 mg, 15 mg QD, C2D1, Mean (%CV), read-out: AUC8 h): 9930 ng·h/mL; Cmax ([2]; 15 mg, C1D1, Mean (%CV)): 274 ng/mL; AUC(0-t) ([2]; 15 mg, C1D1, Mean (%CV), read-out: AUC8 h): 1530 ng·h/mL; AUC(0-t) ([2]; 15 mg, C1D1, Mean (%CV), read-out: AUC24 h): 4780 ng·h/mL; Cmax ([2]; 25 mg, 25 mg QD, C2D1, Mean (%CV)): 2110 ng/mL; AUC(0-t) ([2]; 25 mg, 25 mg QD, C2D1, Mean (%CV), read-out: AUC8 h): 12300 ng·h/mL; Cmax ([2]; 25 mg, C1D1, Mean (%CV)): 593 ng/mL; AUC(0-t) ([2]; 25 mg, C1D1, Mean (%CV), read-out: AUC8 h): 3090 ng·h/mL; AUC(0-t) ([2]; 25 mg, C1D1, Mean (%CV), read-out: AUC24 h): 9170 ng·h/mL; Cmax ([2]; 40 mg, 40 mg QD, C2D1, Mean (%CV)): 2970 ng/mL; AUC(0-t) ([2]; 40 mg, 40 mg QD, C2D1, Mean (%CV), read-out: AUC8 h): 15700 ng·h/mL; Cmax ([2]; 40 mg, 40 mg QD, C2D1, patient 101-010): 3600 ng/mL; AUC(0-t) ([2]; 40 mg, 40 mg QD, C2D1, patient 101-010, read-out: AUC8 h): 15600 ng·h/mL; Cmax ([2]; 40 mg, 40 mg QD, C2D1, patient 102-012): 3550 ng/mL; AUC(0-t) ([2]; 40 mg, 40 mg QD, C2D1, patient 102-012, read-out: AUC8 h): 18300 ng·h/mL; Cmax ([2]; 40 mg, 40 mg QD, C2D1, patient 201-010): 2410 ng/mL; AUC(0-t) ([2]; 40 mg, 40 mg QD, C2D1, patient 201-010, read-out: AUC8 h): 13400 ng·h/mL; Cmax [2, 4]: 2300 ng/mL; Tmax [2, 4]: 3 h; AUC(0-t) ([2]; 40 mg, 40 mg QD, C2D1, patient 202-012, read-out: AUC8 h): 15400 ng·h/mL; Cmax ([2]; 40 mg, C1D1, Mean (%CV)): 698 ng/mL; AUC(0-t) ([2]; 40 mg, C1D1, Mean (%CV), read-out: AUC8 h): 3960 ng·h/mL; AUC(0-t) ([2]; 40 mg, C1D1, Mean (%CV), read-out: AUC24 h): 12100 ng·h/mL; Cmax ([2]; 40 mg, C1D1, patient 101-010): 692 ng/mL; AUC(0-t) ([2]; 40 mg, C1D1, patient 101-010, read-out: AUC8 h): 3850 ng·h/mL; AUC(0-t) ([2]; 40 mg, C1D1, patient 101-010, read-out: AUC24 h): 12000 ng·h/mL; Cmax ([2]; 40 mg, C1D1, patient 102-012): 789 ng/mL; AUC(0-t) ([2]; 40 mg, C1D1, patient 102-012, read-out: AUC8 h): 4510 ng·h/mL; AUC(0-t) ([2]; 40 mg, C1D1, patient 102-012, read-out: AUC24 h): 12300 ng·h/mL; Cmax ([2]; 40 mg, C1D1, patient 201-010): 415 ng/mL; AUC(0-t) ([2]; 40 mg, C1D1, patient 201-010, read-out: AUC8 h): 2470 ng·h/mL; AUC(0-t) ([2]; 40 mg, C1D1, patient 201-010, read-out: AUC24 h): 8460 ng·h/mL; Cmax ([2]; 40 mg, C1D1, patient 202-012): 896 ng/mL; AUC(0-t) ([2]; 40 mg, C1D1, patient 202-012, read-out: AUC8 h): 5040 ng·h/mL; Cmax ([2]; 60 mg, 60 mg QD, C2D1, Mean row, patient 201-011 excluded): 5330 ng/mL; AUC(0-t) ([2]; 60 mg, 60 mg QD, C2D1, Mean row, patient 201-011 excluded, read-out: AUC8 h): 37500 ng·h/mL; Cmax ([2]; 60 mg, 60 mg QD, C2D1, patient 201-011 (excluded from C2D1 summary, extended dose interruption)): 5230 ng/mL; AUC(0-t) ([2]; 60 mg, 60 mg QD, C2D1, patient 201-011 (excluded from C2D1 summary, extended dose interruption), read-out: AUC8 h): 31300 ng·h/mL; Cmax ([2]; 60 mg, C1D1, Mean (%CV), patient 101-011 excluded): 881 ng/mL; AUC(0-t) ([2]; 60 mg, C1D1, Mean (%CV), patient 101-011 excluded, read-out: AUC8 h): 4930 ng·h/mL; AUC(0-t) ([2]; 60 mg, C1D1, Mean (%CV), patient 101-011 excluded, read-out: AUC24 h): 15400 ng·h/mL; Cmax ([2]; 60 mg, C1D1, patient 101-011 (excluded from C1D1 summary statistics, AQL samples)): 878 ng/mL; AUC(0-t) ([2]; 60 mg, C1D1, patient 101-011 (excluded from C1D1 summary statistics, AQL samples), read-out: AUC8 h): 5630 ng·h/mL; AUC(0-t) ([2]; 60 mg, C1D1, patient 101-011 (excluded from C1D1 summary statistics, AQL samples), read-out: AUC24 h): 18900 ng·h/mL; Cmax ([2]; 60 mg, C1D1, patient 201-011): 957 ng/mL; AUC(0-t) ([2]; 60 mg, C1D1, patient 201-011, read-out: AUC8 h): 5510 ng·h/mL; AUC(0-t) ([2]; 60 mg, C1D1, patient 201-011, read-out: AUC24 h): 17600 ng·h/mL; Cmax ([2]; 60 mg, C1D1, patient 202-014): 804 ng/mL; AUC(0-t) ([2]; 60 mg, C1D1, patient 202-014, read-out: AUC8 h): 4340 ng·h/mL; AUC(0-t) ([2]; 60 mg, C1D1, patient 202-014, read-out: AUC24 h): 13100 ng·h/mL; Tmax ([2]; 5 mg QD, C2D1, median (min, max)): 1 h; Tmax ([2]; 40 mg QD, C2D1, median (min, max)): 1.5 h; Tmax ([2]; 60 mg QD, C2D1, patient 201-011 (excluded from C2D1 summary, extended dose interruption)): 2 h; Tmax ([2]; 5-60 mg QD, preliminary PK, overall): ~2 h; average accumulation in exposure at steady-state ([2]; preliminary PK): 7.4 fold; terminal half-life ([2]; preliminary PK): long; Inhibition of tumor cell lines [3]: inhibited
